Data set [1] deals with EA.hy926 endothelial cells. Description: Angiogenesis tube formation assay. The data set is classed as cell-based. As for the experimental part:
Expression of PEDF-signaling associated genes from PC-3 cells treated with 50 μM C3, compared to DMSO control and normalized to GAPDH (n=3, mean±SEM). A Holm-Sidak multiple t test was used for statistical analysis (*p<0.05,**O<0.01, ***<0.001). […] Average tube count for 0.1% DMSO, 0.5% DMSO, and 1, 10 and 50 μM treatment with C3 (n=7, mean±SEM). 1 and 10 μM C3 were compared with respective 0.5% DMSO (unpaired two-tailed t test, ****<0.0001). 50 μM C3 was compared with respective 0.1% DMSO (unpaired two-tailed t test p<0.0001).
Wound Healing Assay. PC-3 cells were seeded in 6 well plates at 3×10^5 cells per well in complete media until the cells reached confluency. Three horizontal and three vertical scratches were made in the confluent monolayers using a standard 200 μL pipette tip and cellular debris were removed by washing with 1×DPBS three times. 1×RPMI-1640 supplemented with C3 or DMSO was added and cells were incubated for 48 hours as described previously. […] Images were uploaded and analyzed for scratch geometry using the tscratch program (96). First, global thresholding was performed, then individual images were manually inspected for single image threshold adjustment and scratch geometries were quantified. […] The samples were analyzed using the Dionex UltiMate 3000 RSLC Nano System coupled to the Q Exactive™ HF Hybrid Quadrupole-Orbitrap MS (Thermo Scientific). […]

A further data set concerns THP-1 human monocytes. Put plainly: Inflammatory gene expression (qPCR) in LPS-stimulated THP-1 macrophages. It counts as cell-based. As for the experimental part:
FIG. 17—Fold change in inflammatory gene expression when THP-1 monocytes are treated with Compounds of Interest. […] PL, PMA-differentiated and treated with LPS. P18, PEDF peptide. (*, p<0.05 relative to PL)
Cell Culture. THP-1 human monocytes were purchased from ATCC (Manassas, Va.) and cultured in DMEM/10% FBS/1% Anti-Anti (Gibco). The monocytes were differentiated into macrophages with 5 ng/ml […] (PMA) for 48 h and pretreated with drugs for 6 h. Lipopolysaccharide (LPS, 10 ng/ml) stimulation was performed for 1 h and cells were collected for assays. Human adipose-derived mesenchymal stromal/stem cells (ASC) were purchased from LaCell, LLC (Metairie, La.) and grown on fibronectin-coated plates in MCDB-201/DMEM/10% FBS media. RNA isolation and qPCR. RNA was isolated from cell pellets using an RNAeasy kit (Qiagen) according to manufacturers' specifications for tissue samples. 1 μg RNA was reverse transcribed using a AmfiRivert kit (Genedepot) and 2 μl used in a SYBR green quantitative PCR reaction for detecting differences in gene expression relative to beta-actin control. Luciferase Assays. THP-1 human monocytes were seeded in OptiMEM/1% anti-anti (Gibco) and transfected using Lipofectamine LTX (Invitrogen, Carlsbad, Calif.) in a 96-well format in white opaque plates. […] The samples were read in a BiotekNeo (Bindley Bioscience Center). […]

Data on one compound can be found in patent publication US11022604B2, “Dock derived compound against laminin receptor (37 LR) and uses thereof” (Purdue Research Foundation, priority 2017, dated 2021).

Molecules are shown by their SMILES.

As to `O=C(c1cc(F)cc2c1OCOC2)N1CCN(C2c3ccccc3-c3ccccc32)CC1` [Compound C3, [4-(9h-fluoren-9-yl)piperazino](6-fluoro-4h-1,3-benzodioxin-8-yl)methanone], the calcein uptake entry in data set [1] is “did not alter calcein uptake”. Also, the “reduction of IL-1β expression” value with THP-1 human monocytes is reported as about 8 fold.
